EP3386957B1, “PROCESS FOR THE PURIFICATION OF 10-DEACETYL BACCATIN III” (RotaChrom Technológiai és Szolgálató Zártkörüen Müködö …, priority 2015, dated 2017)
≈ marks a conversion by molar mass, not a printed value. Like-named read-outs stand apart in the source and are kept apart here.

What was measured:
Assay type in all cases: physicochemical
[1] = Selectivity of CPC solvent systems for contaminants of 10-DAB III (contaminants identified by HPLC relative retention time)
Method: The HPLC methods used for the analysis: • 1. Isocratic method • Column: Dr Maisch ReproSil-Pur C18-AQ (150x4.0 mm, 3 um) • Column thermostat: 35 °C • Flow rate: 0.75 ml/min • Eluent: 28% acetonitrile, 72% water, 0.1% acetic acid • Detection wavelength: 230 +/- 5 nm • Injected volume: 10 ul • 2. Gradient method • Colum: Phenomenex Kinetex C18 (100x3.0 mm, 2.6 um) • Column thermostat: 35 °C • Flow rate: 0.7 ml/min • Eluent A: water + 0.1% acetic acid Eluent B: acetonitrile Gradient program: 0 min 20% B, 5 min: 30% B, 11 min 40% B, 13 min 40% B, 14 min 20% B, 18 min 20% B • Detection wavelength: 230 +/- 5 nm • Injected volume: 5 ul
Table 3: the selectivity matrix of the individual methods according to the invention

[2] = Solubility of 10-DAB III in solvents and biphasic solvent systems
Text: (§1) As such a degree of solubility may only be achieved in a mixture of MIBK, acetone and water after heating, after cooling and shaking the substance crystalized (Margraff, 1995). The partition coefficient of 10-DAB III is around 6. […] The chromatogram according to Figure 3 presents a product purified in such a solvent system.
(§2) It was also surprising to experience that the biphasic system formed by the mixture of methyl tert-butyl ether (hereinafter: MTBE), acetone and water is also suitable for dissolving 10-DAB III, if their volumetric mixing ratio is approximately 4:4:3, in which the upper phase is a mixture of 40% MTBE, 50% acetone and 10% water, and the lower phase is a mixture of 40% water, 50% acetone and 10% MTBE. 10-DAB III is insoluble separately in MTBE and in water, but it dissolves in both phases of the aforementioned ternary solvent mixture, solubility in the upper phase is 50 mg/ml. […] Such contaminants on the basis of the HPLC method below are the RRT=0.68 and the RRT=0.87 contaminants.

[3] = Partition coefficient in biphasic CPC solvent systems
Text: as §1, §2
Liquid chromatography or extraction performed with a chlorinated hydrocarbon is usually used for the separation of chlorophyll and related compounds. […] A solvent system that may be used for this may be the dichloromethane, methanol and water mixture at an approximate volumetric ratio of 3:4:3. In this solvent system the partition coefficient of 10-DAB III is 0.95, while that of the aforementioned problematic contaminants is around 0.4-0.5.

Structure (SMILES)	selectivity ([1]; CPC solvent mixture DCM/MeOH/water, Table 3)	selectivity ([1]; CPC solvent mixture MEK/water, isocratic HPLC method)	selectivity ([1]; CPC solvent mixture MEK/water, Table 3)	selectivity ([1]; CPC solvent mixture MTBE/acetone/water, isocratic HPLC method)	selectivity ([1]; prior-art system: mixture of methyl isobutyl ketone, acetone and water)	solubility ([2]; organic solvent or mixture, MTBE/acetone/water approximately 4:4:3, upper phase (40% MTBE, 50% acetone, 10% water), read-out: solubility in the upper phase) [mg/mL]	solubility ([2]; separately in MEK or water)	solubility ([2]; separately in MTBE and in water)	solubility ([2]; upper phase of MEK/water biphasic system, organic solvent or mixture, MEK/water biphasic system, upper phase (MEK saturated with water), read-out: solubility in the upper phase) [mg/mL]	partition coefficient ([3]; MEK/water biphasic system)	partition coefficient ([3]; MTBE/acetone/water approximately 4:4:3)	partition coefficient ([3]; dichloromethane, methanol and water approximately 3:4:3)
CC(=O)O[C@@]12CO[C@@H]1C[C@H](O)[C@@]1(CO)C(=O)[C@H](O)C3=C(C)[C@@H](O)C[C@@](O)([C@@H](OC(=O)c4ccccc4)[C@H]21)C3(C)C [RRT=0.48, 19-OH-10-deacetylbaccatin III]	+	great selectivity	+++ (high selectivity)	great selectivity	excellent selectivity							
CC(=O)O[C@@]12CO[C@@H]1C[C@H](O)[C@@]1(C)C(=O)[C@H](O)C3=C(C)[C@@H](O)C[C@@](O)([C@@H](OC(=O)c4ccccc4)[C@H]21)C3(C)C [10-DAB III, 10-deacetylbaccatin III]						50 (≈ 91.8 mM)	does not dissolve well	insoluble	80 (≈ 147 mM)	around 6	around 2	0.95
